According to patent US20240025862A1, “SUBSTITUTED N-PHENYLURACILS AND SALTS THEREOF, AND USE THEREOF AS HERBICIDAL ACTIVE SUBSTANCES” (Bayer Aktiengesellschaft, priority 2020, published 2024):

Tests used:
Assay type in all cases: in vivo
[1] = system: Abutilon theophrasti (ABUTH); assay: Post-emergence herbicidal action, greenhouse pot test; settings: rated visually after about 3 weeks vs untreated controls, 100% = plants have died
In short: (§1)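 Activity was scored by eye about 3 weeks after treatment against untreated plants, where 100% means dead plants and 0% means no difference. Plants at the one-leaf stage received a foliar spray of WP or EC formulations in water plus 0.5% additive (600 l/ha, up to 20 g/ha). Plants were grown in sandy loam pots in a greenhouse for 2–3 weeks before spraying.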

[2] = system: Amaranthus retroflexus (AMARE); assay: as above; settings: rated visually after about 3 weeks vs untreated controls, 100% = plants have died
In short: as §1

Avena fatua (AVEFA) = assay: as above; settings: 20 g/ha, rated visually after about 3 weeks vs untreated controls, 100% = plants have died
In short: as §1

[3] = system: Pharbitis purpurea (PHBPU); assay: as above
In short: as §1

[4] = system: Polygonum convolvulus (POLCO); assay: as above
In short: as §1

Veronica persica (VERPE) = assay: as above
In short: as §1

Viola tricolor (VIOTR) = assay: as above
In short: as §1

[5] = system: Alopecurus myosuroides (ALOMY); assay: Post-emergence herbicidal action, greenhouse pot test (also comparative test C)
In short: (§2)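 Green parts of one-leaf-stage plants are sprayed at 600 l/ha with formulated compound plus 0.5% additive, then kept under optimum greenhouse conditions for about 3 weeks. Damage is scored visually, where 100% means dead plants and 0% means no difference from controls.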

[6] = system: Echinochloa crus-galli (ECHCG); assay: as above; settings: for Post-emergence action at 1.25 g/ha against ECHCG in %: rated visually after about 3 weeks vs untreated controls, 100% = plants have died
In short: as §2

[7] = system: Matricaria inodora (MATIN); assay: as above
In short: as §2

Setaria viridis (SETVI) = assay: as above
In short: as §2

Brassica napus (BRSNW) = assay: Post-emergence crop plant compatibility, greenhouse pot test; settings: 1.25 g/ha, vs untreated controls
In short: (§3)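 Greenhouse pot test; post-emergence foliar spray at one-leaf stage, WP or EC in water + 0.5% additive, 600 l/ha. Visual rating after ~3 wk, % relative to untreated (0–100%).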

[8] = system: Triticum aestivum (TRZAS); assay: as above; settings: vs untreated controls
In short: as §3

Zea mays (ZEAMX) = assay: as above; settings: 1.25 g/ha, vs untreated controls
In short: as §3

Oryza sativa (ORYSA) = assay: Post-emergence crop plant compatibility, greenhouse pot test (also comparative test C); settings: for Post-emergence action against ORYSA (crop plant compatibility): vs untreated controls
In short: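 Visual damage versus untreated plants (0% = like control, 100% = plants died) was scored about 3 weeks after a post-emergence spray in greenhouse pots. Treatment: one-leaf stage, WP or EC in water at 600 l/ha with 0.5% additive; a/b/c mark different dosages on the same crop.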

Lolium rigidum (LOLRI) = assay: Post-emergence herbicidal action, greenhouse pot test; settings: Lolium rigidum, 504 h, dosage 20 g/ha, read-out: Post-emergence action against LOLRI in %
In short: as §1

Glycine max (GLXMA) = assay: Post-emergence crop plant compatibility, greenhouse pot test; settings: 1.25 g/ha
In short: as §3

[9] = application rate of 5 g or less per hectare, tables C1 to C4
[10] = comparative test C, application rate 1.25 g/ha

Cn1c(C(F)(F)F)cc(=O)n(-c2cc(Oc3ccccc3OCC(=O)OC3COC3)c(Cl)cc2F)c1=O [I.7-115]
Post-emergence action at 1.25 g/ha against ABUTH in % ([1]; 1.25 g/ha): 80%
Post-emergence action at 5 g/ha against ABUTH in % ([1]; 5 g/ha): 100%
Post-emergence action at 20 g/ha against ABUTH in % ([1]; 20 g/ha): 100%
Post-emergence action at 1.25 g/ha against AMARE in % ([2]; 1.25 g/ha): 100%
Post-emergence action at 5 g/ha against AMARE in % ([2]; 5 g/ha): 100%
Post-emergence action at 20 g/ha against AMARE in % ([2]; 20 g/ha): 100%
Post-emergence action at 20 g/ha against AVEFA in % (Avena fatua (AVEFA)): 100%
Post-emergence action against PHBPU in % ([3]; dosage 1.25 g/ha): 100%
Post-emergence action against PHBPU in % ([3]; dosage 5 g/ha): 100%
Post-emergence action against PHBPU in % ([3]; dosage 20 g/ha): 100%
Post-emergence action against POLCO in % ([4]; dosage 5 g/ha): 100%
Post-emergence action against POLCO in % ([4]; dosage 20 g/ha): 100%
Post-emergence action against VERPE (Veronica persica (VERPE); 1.25 g/ha): 100%
Post-emergence action against VERPE (Veronica persica (VERPE); 5 g/ha): 100%
Post-emergence action against VERPE (Veronica persica (VERPE); 20 g/ha): 100%
Post-emergence action against VIOTR (Viola tricolor (VIOTR); 1.25 g/ha): 100%
Post-emergence action against VIOTR (Viola tricolor (VIOTR); 5 g/ha): 100%
Post-emergence action against VIOTR (Viola tricolor (VIOTR); 20 g/ha): 100%
Post-emergence action at 5 g/ha against ALOMY in % ([5]; 5 g/ha, rated visually after about 3 weeks vs untreated controls, 100% = plants have died): 100%
Post-emergence action at 20 g/ha against ALOMY in % ([5]; 20 g/ha, rated visually after about 3 weeks vs untreated controls, 100% = plants have died): 100%
herbicidal efficacy against ALOMY by comparison with literature compound a-17 / 3-14 [5, 9]: distinct improvement in herbicidal efficacy
Post-emergence action at 1.25 g/ha against ECHCG in % [6]: 100%
herbicidal efficacy against ECHCG by comparison with literature compound a-17 / 3-14 [6, 9]: distinct improvement in herbicidal efficacy
ECHCG (efficacy in %) [6, 10]: 100%
Post-emergence action against ECHCG in % ([6]; dosage 5 g/ha): 100%
Post-emergence action against ECHCG in % ([6]; dosage 20 g/ha): 100%
herbicidal efficacy against MATIN by comparison with literature compound a-17 / 3-14 [7, 9]: distinct improvement in herbicidal efficacy
MATIN (efficacy in %) [7, 10]: 100%
Post-emergence action against MATIN in % ([7]; dosage 1.25 g/ha): 100%
Post-emergence action against MATIN in % ([7]; dosage 5 g/ha): 100%
Post-emergence action against MATIN in % ([7]; dosage 20 g/ha): 100%
Post-emergence action against SETVI (Setaria viridis (SETVI); 20 g/ha): 100%
herbicidal efficacy against SETVI by comparison with literature compound a-17 / 3-14 (Setaria viridis (SETVI); [9]): distinct improvement in herbicidal efficacy
SETVI (efficacy in %) (Setaria viridis (SETVI); [10]): 100%
Post-emergence action against SETVI in % (Setaria viridis (SETVI); dosage 1.25 g/ha): 100%
Post-emergence action against SETVI in % (Setaria viridis (SETVI); dosage 5 g/ha): 100%
Post-emergence action against BRSNW (crop plant compatibility) (Brassica napus (BRSNW)): 20%
Post-emergence action against TRZAS (crop plant compatibility) ([8]; 1.25 g/ha): 0%
Post-emergence action against ZEAMX (crop plant compatibility) (Zea mays (ZEAMX)): 20%
Post-emergence action against ORYSA (crop plant compatibility) (Oryza sativa (ORYSA); 1.25 g/ha): 0%
compatibility with respect to the crop plant Oryza sativa (ORYSA) by comparison with literature compound a-17 / 3-14 (Oryza sativa (ORYSA); application rate of 1.25 g per hectare, table C5): distinct improvement in compatibility
ORYSA (efficacy in %) (Oryza sativa (ORYSA); comparative test C, application rate 1.25 g/ha, crop plant compatibility): 0%

COCCOC(=O)COc1ccccc1Oc1cc(-n2c(=O)cc(C(F)(F)F)n(C)c2=O)c(F)cc1[N+](=O)[O-] [I.6-1, 2-Methoxyethyl (2-{4-fluoro-5-[3-methyl-2,6-dioxo-4-(trifluoromethyl)-3,6-dihydropyrimidin-1(2H)-yl]-2-nitrophenoxy}phenoxy)acetate]
pest or weed control at 1.25 g/ha ([1]; Abutilon theophrasti, 504 h, 1.25 g/ha, read-out: Post-emergence action at 1.25 g/ha against ABUTH in %): 100%
pest or weed control at 5 g/ha ([1]; Abutilon theophrasti, 504 h, 5 g/ha, read-out: Post-emergence action at 5 g/ha against ABUTH in %): 100%
pest or weed control at 20 g/ha ([1]; Abutilon theophrasti, 504 h, 20 g/ha, read-out: Post-emergence action at 20 g/ha against ABUTH in %): 100%
pest or weed control at 1.25 g/ha ([2]; Amaranthus retroflexus, 504 h, 1.25 g/ha, read-out: Post-emergence action at 1.25 g/ha against AMARE in %): 100%
pest or weed control at 5 g/ha ([2]; Amaranthus retroflexus, 504 h, 5 g/ha, read-out: Post-emergence action at 5 g/ha against AMARE in %): 100%
pest or weed control at 20 g/ha ([2]; Amaranthus retroflexus, 504 h, 20 g/ha, read-out: Post-emergence action at 20 g/ha against AMARE in %): 100%
pest or weed control at 20 g/ha (Avena fatua (AVEFA); Avena fatua, 504 h, read-out: Post-emergence action at 20 g/ha against AVEFA in %): 100%
pest or weed control at 20 g/ha (Lolium rigidum (LOLRI)): 80%
pest or weed control at 5 g/ha ([3]; Ipomoea purpurea, 504 h, dosage 5 g/ha, read-out: Post-emergence action against PHBPU in %): 100%
pest or weed control at 20 g/ha ([3]; Ipomoea purpurea, 504 h, dosage 20 g/ha, read-out: Post-emergence action against PHBPU in %): 100%
pest or weed control at 5 g/ha ([4]; Fallopia convolvulus, 504 h, dosage 5 g/ha, read-out: Post-emergence action against POLCO in %): 100%
pest or weed control at 20 g/ha ([4]; Fallopia convolvulus, 504 h, dosage 20 g/ha, read-out: Post-emergence action against POLCO in %): 100%
pest or weed control at 5 g/ha (Veronica persica (VERPE); Veronica persica, 504 h, 5 g/ha, read-out: Post-emergence action against VERPE): 100%
pest or weed control at 20 g/ha (Veronica persica (VERPE); Veronica persica, 504 h, 20 g/ha, read-out: Post-emergence action against VERPE): 100%
pest or weed control at 1.25 g/ha (Viola tricolor (VIOTR); Viola tricolor, 504 h, 1.25 g/ha, read-out: Post-emergence action against VIOTR): 100%
pest or weed control at 5 g/ha (Viola tricolor (VIOTR); Viola tricolor, 504 h, 5 g/ha, read-out: Post-emergence action against VIOTR): 100%
pest or weed control at 20 g/ha (Viola tricolor (VIOTR); Viola tricolor, 504 h, 20 g/ha, read-out: Post-emergence action against VIOTR): 100%
pest or weed control at 5 g/ha ([5]; Alopecurus myosuroides, 504 h, 5 g/ha, rated visually after about 3 weeks vs untreated controls, 100% = plants have died, read-out: Post-emergence action at 5 g/ha against ALOMY in %): 80%
pest or weed control at 20 g/ha ([5]; Alopecurus myosuroides, 504 h, 20 g/ha, rated visually after about 3 weeks vs untreated controls, 100% = plants have died, read-out: Post-emergence action at 20 g/ha against ALOMY in %): 100%
Post-emergence action at 1.25 g/ha against ECHCG in % [6]: 90%
pest or weed control at 5 g/ha ([6]; Echinochloa crus-galli, 504 h, dosage 5 g/ha, read-out: Post-emergence action against ECHCG in %): 90%
pest or weed control at 20 g/ha ([6]; Echinochloa crus-galli, 504 h, dosage 20 g/ha, read-out: Post-emergence action against ECHCG in %): 100%
pest or weed control at 5 g/ha ([7]; Tripleurospermum inodorum, 504 h, dosage 5 g/ha, read-out: Post-emergence action against MATIN in %): 100%
pest or weed control at 20 g/ha ([7]; Tripleurospermum inodorum, 504 h, dosage 20 g/ha, read-out: Post-emergence action against MATIN in %): 100%
pest or weed control at 20 g/ha (Setaria viridis (SETVI); Setaria viridis, 504 h, 20 g/ha, read-out: Post-emergence action against SETVI): 100%
pest or weed control at 1.25 g/ha (Setaria viridis (SETVI); Setaria viridis, 504 h, dosage 1.25 g/ha, read-out: Post-emergence action against SETVI in %): 100%
pest or weed control at 5 g/ha (Setaria viridis (SETVI); Setaria viridis, 504 h, dosage 5 g/ha, read-out: Post-emergence action against SETVI in %): 100%
Post-emergence action against GLXMA in % (Glycine max (GLXMA)): 20%
Post-emergence action against TRZAS (crop plant compatibility) ([8]; 1.25 g/ha): 10%
Post-emergence action against TRZAS (crop plant compatibility) ([8]; 5 g/ha): 20%
Post-emergence action against ZEAMX (crop plant compatibility) (Zea mays (ZEAMX)): 20%
Post-emergence action against ORYSA (crop plant compatibility) (Oryza sativa (ORYSA); 1.25 g/ha): 0%
Post-emergence action against ORYSA (crop plant compatibility) (Oryza sativa (ORYSA); 5 g/ha): 10%
Post-emergence action against ORYSA in % (Oryza sativa (ORYSA); 20 g/ha, crop plant compatibility): 20%
